Test results: BigSolDB 2.1

N#Cc1ccccc1-c1ccc(CBr)cc1
solubility (mole fraction)
Details | 278.15 K | 283.15 K | 288.15 K | 293.15 K | 298.15 K | 303.15 K | 308.15 K | 313.15 K
in acetone | 0.0151 | 0.0169 | 0.0214 | 0.0241 | 0.0306 | 0.0352 | 0.0424 | 0.0492
in n-propanol | 0.00052 | 0.00075 | 0.00099 | 0.00126 | 0.00181 | 0.00226 | 0.0027 | 0.00343
